US20240051956A1, “SOS1 INHIBITORS AND USES THEREOF” (QILU REGOR THERAPEUTICS INC., priority 2020, published 2024)

Assays:
SOS1 and KRAS G12D = SOS1 and KRAS G12D (Homo sapiens (Human), UniProt Q07889); assay: KRAS::SOS1 AlphaScreen Binding Assay; conditions: SOS1 (564-1049), KRAS G12D (1-169), GDP
Source text: a. KRAS::SOS1 AlphaScreen Binding Assay
Low IC50 values of given compounds are indicative of high potency of the SOS1 inhibitor compounds in this assay setting.
• GST-TEV-SOS1 (564-1049) and His-TEV-Avi-KRAS G12D (1-169) are purchased from Viva Biotech (Shanghai) Ltd. • GDP (Sigma, Cat. G7127) • AlphaLISA Glutathione Acceptor Beads (PerkinElmer, Cat. AL109C) • AlphaScreen Streptavidin Donor Beads (PerkinElmer, Cat. 6760002S) • Assay plates: ProxiPlate-384 Plus, White 384-shallow well Microplate (PerkinElmer, Cat. 6008280)
SOS1 inhibitor compounds are diluted to a final start concentration of […]. Serial dilutions of compounds are made using Tecan D300e Digital Dispenser in 9 concentrations with serial 1:3 dilutions. 100 nL of compound solution is transferred to the 384-well assay plate per well, covering a range between 1 μM and 0.15 nM minimum in duplicate. 10 nM (final assay concentration) KRAS G12D, 5 nM (final assay concentration) SOS1 and 10 μM (final assay concentration) GDP are mixed in assay buffer, and 5 μL of KRAS::SOS1 GDP mix is added into the assay plate to the 100 nL of compound solution (final dilution in the assay 1:100, final DMSO concentration 1%). After a 30 min incubation, AlphaLISA Glutathione Acceptor Beads and AlphaScreen Streptavidin Donor Beads are mixed in assay buffer at a concentration of 5 µg/mL (final assay concentration), and 5 μL of bead mix is added into the assay plate. Plates are kept at room temperature in a darkened incubator for 3 h. After a 3 h incubation, the signal is determined using Envision (PerkinElmer). The excitation wavelength is 680 nm, and emission 615 nm. IC50 values are calculated and analyzed using GraphPad Prism.

NCI-H358 = assay: Cell proliferation assay, 3D, CellTiter-Glo 3D; type: cell-based, human; conditions: Homo sapiens, 72 h; NCI-H358 (KRAS G12C), 3D ultra-low attachment, 3 days; read-out: anit-prolif. H358 IC50
Protocol: b. Cell Proliferation Assay
Low IC50 values are indicative of high potency of the compounds in this assay setting.
Cell proliferation assay is performed in three-dimensional (3D) ultra-low conditions with the human cell line NCI-H358, a human non-small cell lung cancer (NSCLC) cell line with a KRAS G12C mutation.
• 96-well Clear Round Bottom Ultra-Low Attachment Microplate (Corning, Cat. 7007) • 96-well Flat Clear Bottom White Polystyrene TC-treated Microplates (Corning, Cat. 3610) • RPMI-1640 Medium (Gibco, Cat. 22400105) • Fetal Bovine Serum (FBS) (Gibco, Cat. 10099141C) • 0.25% Trypsin-EDTA (Gibco, Cat. 25200056) • Penicillin-Streptomycin (Gibco, Cat. 15140122) • CellTiter-Glo 3D Cell Viability Assay (Promega, Cat. G9683)
NCI-H358 cells (ATCC, Cat. CRL-5807) are grown in cell culture flasks using RPMI medium supplemented with 10% FBS. Cells are incubated at 37° C. and 5% C02 in a humidified atmosphere, with sub-cultivation performed twice a week. Cells are trypsinized, counted and plated in 96-well ultra-low adhesion plates for 3D cell viability determination. The day after plating, serial dilutions of SOS1 inhibitor compounds are made using Tecan D300e Digital Dispenser to evaluate a concentration-dependent effect on cell viability. The concentration of the test compounds covers a range between 5 μM and 0.76 nM with serial 1:3 dilutions in 9 concentrations. 0.5 μL serial dilutions of the compounds are added in duplicates. 3 days later, the CellTiter-Glo 3D Cell Viability Assay is used to measure cell viability effects of SOS1 inhibitor compounds in 3D format. Luminescent intensity is determined using Envision (PerkinElmer). Data is analyzed and IC50 values are calculated using GraphPad Prism.

SOS1 and KRAS G12D, sequence (Q07889 564-1049, stated change not applied): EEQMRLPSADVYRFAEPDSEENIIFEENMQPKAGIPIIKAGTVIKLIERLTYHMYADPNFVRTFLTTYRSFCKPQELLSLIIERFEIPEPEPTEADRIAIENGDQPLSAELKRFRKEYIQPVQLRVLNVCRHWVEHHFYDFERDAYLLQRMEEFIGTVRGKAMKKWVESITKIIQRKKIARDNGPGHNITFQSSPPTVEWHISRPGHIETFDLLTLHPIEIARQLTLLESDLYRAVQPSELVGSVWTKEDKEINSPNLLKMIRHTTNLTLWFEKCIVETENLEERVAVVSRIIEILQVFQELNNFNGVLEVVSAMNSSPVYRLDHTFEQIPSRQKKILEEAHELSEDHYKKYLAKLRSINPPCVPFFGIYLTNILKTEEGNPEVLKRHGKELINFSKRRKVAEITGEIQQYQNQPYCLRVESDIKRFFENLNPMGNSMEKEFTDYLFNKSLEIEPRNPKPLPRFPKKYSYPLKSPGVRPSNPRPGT

IC50 (SOS1 and KRAS G12D) [nM]	IC50 (NCI-H358) [nM]	SMILES
≤ 15	100 to 500	Cc1nc(N[C@H](C)c2cccc(C(F)F)c2F)c2cn(N3CCN(C(C)C)CC3)c(=O)cc2n1 [Example 12, 4-[[(1R)-1-[3-(difluoromethyl)-2-fluoro-phenyl]ethyl]amino]-6-(4-isopropylpiperazin-1-yl)-2-methyl-pyrido[4,3-d]pyrimidin-7-one]
≤ 15	500 to 1000	Cc1nc(N[C@H](C)c2cccc(C(F)F)c2F)c2cn(N3CCN(C(=O)CO)CC3)c(=O)cc2n1 [Example 13, 4-[[(1R)-1-[3-(difluoromethyl)-2-fluoro-phenyl]ethyl]amino]-6-[4-(2-hydroxyacetyl)piperazin-1-yl]-2-methyl-pyrido[4,3-d]pyrimidin-7-one]
≤ 15	500 to 1000	Cc1nc(N[C@H](C)c2cccc(C(F)F)c2F)c2cn(N3CCN(C(=O)CC#N)CC3)c(=O)cc2n1 [Example 14]
15 to 150	≤ 100	Cc1nc(N[C@H](C)c2cccc(C(F)F)c2F)c2cn(N3CCN(c4ccc(C#N)cn4)CC3)c(=O)cc2n1 [Example 15, 6-[4-[4-[[(1R)-1-[3-(difluoromethyl)-2-fluoro-phenyl]ethyl]amino]-2-methyl-7-oxo-pyrido[4,3-d]pyrimidin-6-yl]piperazin-1-yl]pyridine-3-carbonitrile]
15 to 150	100 to 500	Cc1nc(N[C@H](C)c2cc(N)cc(C(F)(F)F)c2)c2cn(N3CCOCC3)c(=O)cc2n1 [Example 16, 4-[[(1R)-1-[3-amino-5-(trifluoromethyl)phenyl]ethyl]amino]-2-methyl-6-morpholino-pyrido[4,3-d]pyrimidin-7-one]
≤ 15	500 to 1000	Cc1nc(N[C@H](C)c2cccc(C(F)(F)CO)c2)c2cn(N3CCOCC3)c(=O)cc2n1 [Example 18]
≤ 15	100 to 500	Cc1nc(N[C@H](C)c2cccc(C(F)(F)F)c2F)c2cn(N3CCOCC3)c(=O)cc2n1 [Example 19]
≤ 15	≤ 100	Cc1nc(N[C@H](C)c2cccc(C(F)(F)F)c2)c2cn(N3CCOCC3)c(=O)cc2n1 [Example 20]
≤ 15	≤ 100	Cc1nc(N[C@H](C)c2cccc(C(F)F)c2C)c2cn(N3CCOCC3)c(=O)cc2n1 [Example 21]
150 to 1000	> 1000	Cc1nc(N[C@@H](C)c2cccc(C(F)F)c2C)c2cn(N3CCOCC3)c(=O)cc2n1 [Example 22]
15 to 150	100 to 500	CCC(Nc1nc(C)nc2cc(=O)n(N3CCOCC3)cc12)c1cccc(C(F)(F)F)c1 (centres unmarked) [Example 24]
15 to 150	100 to 500	Cc1nc(NC(C)c2cccc(C(F)F)c2)c2cn(N3CCOCC3)c(=O)cc2n1 (centres unmarked) [Example 25]
≤ 15	≤ 100	Cc1nc(N[C@H](C)c2cccc(C(F)(F)F)c2F)c2cn(N3CCOCC3)c(=O)c(F)c2n1 [Example 31]
≤ 15	≤ 100	Cc1nc(N[C@H](C)c2cccc(C(F)(F)CO)c2)c2cn(N3CCOCC3)c(=O)c(F)c2n1 [Example 32]
≤ 15	100 to 500	Cc1nc(N[C@H](C)c2cccc(C(F)(F)F)c2)c2cn(N3CCOCC3)c(=O)c(F)c2n1 [Example 33]
≤ 15	100 to 500	Cc1nc(N[C@H](C)c2cccc(C(F)F)c2F)c2cn(N(C)C)c(=O)cc2n1 [Example 34, 4-[[(1R)-1-[3-(difluoromethyl)-2-fluoro-phenyl]ethyl]amino]-6-(dimethylamino)-2-methyl-pyrido[4,3-d]pyrimidin-7-one]
≤ 15	100 to 500	Cc1nc(N[C@H](C)c2cccc(C(F)F)c2F)c2cn(N3CCCC3)c(=O)cc2n1 [Example 35]
≤ 15	100 to 500	Cc1nc(N[C@H](C)c2cccc(C(F)F)c2F)c2cn(N3CCS(=O)(=O)CC3)c(=O)cc2n1 [Example 36]
≤ 15	100 to 500	Cc1nc(N[C@H](C)c2cccc(C(F)F)c2F)c2cn(N3CCC(O)CC3)c(=O)cc2n1 [Example 37]

IC50 (SOS1 and KRAS G12D) [nM]	IC50 (NCI-H358) [nM]	SMILES
≤ 15	500 to 1000	Cc1nc(N[C@H](C)c2cccc(C(F)F)c2F)c2cn(N3CCCC3=O)c(=O)cc2n1 [Example 38]
≤ 15	100 to 500	Cc1nc(N[C@H](C)c2cccc(C(F)F)c2F)c2cn(N3CCOC3=O)c(=O)cc2n1 [Example 39]
≤ 15	≤ 100	Cc1nc(N[C@H](C)c2cccc(C(F)F)c2F)c2cn(N3CCOCC3)c(=O)c(Br)c2n1 [Example 40, 8-bromo-4-[[(1R)-1-[3-(difluoromethyl)-2-fluoro-phenyl]ethyl]amino]-2-methyl-6-morpholino-pyrido[4,3-d]pyrimidin-7-one]
15 to 150	100 to 500	Cc1nc(N[C@H](C)c2cccc(C(F)F)c2F)c2cn(N3CCOCC3)c(=O)c(C#N)c2n1 [Example 41, 4-[[(1R)-1-[3-(difluoromethyl)-2-fluoro-phenyl]ethyl]amino]-2-methyl-6-morpholino-7-oxo-pyrido[4,3-d]pyrimidine-8-carbonitrile]
≤ 15	100 to 500	Cc1nc(N[C@H](C)c2cccc(C(F)F)c2F)c2cn(N3CCOCC3)c(=O)c(C3CC3)c2n1 [Example 42, 8-cyclopropyl-4-[[(1R)-1-[3-(difluoromethyl)-2-fluoro-phenyl]ethyl]amino]-2-methyl-6-morpholino-pyrido[4,3-d]pyrimidin-7-one]
≤ 15	≤ 100	Cc1nc(N[C@H](C)c2cccc(C(F)F)c2F)c2cn(N3CCOCC3)c(=O)c(C)c2n1 [Example 44]
≤ 15	≤ 100	Cc1nc(N[C@H](C)c2cccc(C(F)F)c2F)c2cn(N3CCOCC3)c(=O)c(-c3cccnc3)c2n1 [Example 45]
≤ 15	≤ 100	Cc1nc(N[C@H](C)c2cccc(C(F)F)c2F)c2cn(N3CCOCC3)c(=O)c(-c3ccncc3)c2n1 [Example 46]
≤ 15	100 to 500	Cc1nc(N[C@H](C)c2cccc(C(F)F)c2F)c2cn(N3CCOCC3)c(=O)c(-c3ccccc3)c2n1 [Example 47]
≤ 15	100 to 500	Cc1nc(N[C@H](C)c2cccc(C(F)F)c2F)c2cn(N3CCOCC3)c(=O)c(-c3ccc(N)nc3)c2n1 [Example 48]
≤ 15	500 to 1000	Cc1nc(N[C@H](C)c2cccc(C(F)F)c2F)c2cn(N3CCOCC3)c(=O)c(-c3ccc(=O)[nH]c3)c2n1 [Example 49]
≤ 15	100 to 500	Cc1nc(N[C@H](C)c2cccc(C(F)F)c2F)c2cn(N3CCOCC3)c(=O)c(-c3ccc(F)nc3)c2n1 [Example 50]
≤ 15	> 1000	Cc1nc(N[C@H](C)c2cccc(C(F)F)c2F)c2cn(N3CCOCC3)c(=O)c(-c3ccc[nH]c3=O)c2n1 [Example 51]
≤ 15	≤ 100	Cc1nc(N[C@H](C)c2cccc(C(F)F)c2F)c2cn(N3CCOCC3)c(=O)c(-c3cncnc3)c2n1 [Example 52]
≤ 15	100 to 500	Cc1nc(N[C@H](C)c2cccc(C(F)F)c2F)c2cn(N3CCOCC3)c(=O)c(C3=CCOC3)c2n1 [Example 54]
≤ 15	100 to 500	Cc1nc(N[C@H](C)c2cccc(C(F)F)c2F)c2cn(N3CCOCC3)c(=O)c(C3=CCN(S(C)(=O)=O)CC3)c2n1 [Example 55]
≤ 15	100 to 500	C=C(C)c1c(=O)n(N2CCOCC2)cc2c(N[C@H](C)c3cccc(C(F)F)c3F)nc(C)nc12 [Example 56]
≤ 15	≤ 100	Cc1nc(N[C@H](C)c2cccc(C(F)F)c2F)c2cn(N3CCOCC3)c(=O)c(-c3ccc(C#N)cc3)c2n1 [Example 57]
